From the NIST ThermoML archive (doi:10.1016/j.fluid.2010.01.026)
Numbers after ± are expanded uncertainties.

Settings: 293.15 K; 101.33 kPa; Liquid; Vibrating tube method

## CCCCCCCC[n+]1ccn(C)c1.F[P-](F)(F)(F)(F)F [1-octyl-3-methylimidazolium hexafluorophosphate]
  mass density: 1234.55 ± 8.3 kg/m3
